Measured values taken from patent US20260083865A1, “PROSTATE SPECIFIC MEMBRANE ANTIGEN (PSMA) LIGANDS AND USE THEREOF” (priority 2022, published 2026).
Like-named read-outs stand apart in the source and are kept apart here. Numbered stars: 1 amine (or outer) side, 2 acyl side, 3 side chain; on linkers, the order of the positions; unused ones are H or OH. Bridge positions count the residues as written; N and C are the ends. Square brackets hold non-standard residues; d marks the D form. Side chains are listed from the residue outwards. Peptide text beside a SMILES is read from it. * marks the point of attachment. DOTA = O=C(O)CN1CCN(CC(=O)O)CCN(CC(=O)*)CCN(CC(=O)O)CC1; Phe(4-Cl) = N[C@@H](Cc1ccc(Cl)cc1)C(=O)O; Arg(Me) = CNC(=N)NCCC[C@H](N)C(=O)O; Ethylenediamine = C(CN[*:2])N[*:1]; X1 = O=C(CC1CCN([*:1])CC1)[*:2]; Aad = N[C@@H](CCCC(=O)O)C(=O)O; Lys(Me) = CNCCCC[C@H](N)C(=O)O; Tle = CC(C)(C)[C@H](N)C(=O)O; Aib = CC(C)(N)C(=O)O; CO = O=C([*:1])[*:2]; βAla = NCCC(=O)O

What was measured:
[1] = biological target: T1, PSMA-expressing C4-2 cells (Homo sapiens, UniProt Q04609); test: FACS binding assay (competition with 50 nM PSM-0183); conditions: C4-2 cells, read-out: pIC50 [C4-2] CAT (converted)
T1 construct: PSMA-expressing C4-2 cells (ATCC, Cat. No. CRL-3314) were cultured in RPMI-1640; host or cells: C4-2 cells
In short: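 C4-2 cells were incubated 1 h at 4 °C with 50 nM AF488-labelled peptide PSM-0183 plus increasing test compound concentrations, then washed twice in ice-cold buffer. Median fluorescence in the AF488 channel was read by flow cytometry. IC50/pIC50 was derived by 4PL fitting of MFI versus concentration.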

[2] = biological target: T2, Fc-fusion protein of human PSMA (hPSMA-Fc) (Homo sapiens, UniProt Q04609); test: Surface plasmon resonance assay (Biacore T200, single cycle kinetic); assay type: binding; conditions: read-out: pKD CAT (converted)
T2 construct: purchased Acro Biosystems PSA-H5264
In short: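 hPSMA-Fc was captured (~1000 RU) on an Fc-binding-peptide CM5 chip, and compounds were run in single cycle kinetic mode at 25° C in HBST with 0.1% DMSO. Double-blank-corrected sensorgrams were fitted to a 1:1 Langmuir model to give KD, reported as pKD.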

[3] = biological target: T3, recombinant human PSMA (Homo sapiens, UniProt Q04609); test: Enzyme inhibition assay (GCPII Inhibitor Screening Kit, fluorescence-based); assay type: biochemical; conditions: carboxypeptidase activity of recombinant human PSMA; highest final concentration 1 μM
T3 construct: purchased BioVision K440-100
Procedure: This peptidase activity hydrolyzes γ-peptide bonds between N-acetyl amino acid and glutamate of its substrate.
The carboxypeptidase inhibition of recombinant human PSMA by test compounds was assessed using a commercial fluorescence-based PSMA activity inhibition assay.
The employed Glutamate Carboxypeptidase II (GCPII) Inhibitor Screening Kit (BioVision, Cat #K440-100) is a fluorescence-based, enzymatic in vitro assay to measure the potency of PSMA inhibitors. The provided substrate is […] in the presence of PSMA producing glutamate. The detection system is based on an enzymatic reaction in which a fluorogenic probe is reduced, generating a stable signal.
For the assay, recombinant human PSMA was diluted in GCPII Assay Buffer as recommended in the assay protocol. Serial dilutions of the test compounds were prepared, starting from 10 μM (final reaction concentration of 1 μM). In a 96-well assay plate, 40 μL of the PSMA working solution was mixed with 30 μL of GCPII Assay Buffer. Next, 10 μL of the serially diluted test compounds were added. The mixture was incubated for 20 min at 37° C. Subsequently, 20 μL of a reaction mix solution was added. The fluorescence signal increased due to fluorophore reduction, which is directly proportional to the produced amount of glutamate, was measured in kinetic mode for 90 minutes at 37° C. in a SpectraMax M5 plate reader. RFU/see was assessed by the SoftMax Pro software and plotted against peptide concentrations. Four-parameter logistic (4PL) curve fitting and pIC50 calculations were performed using the GraphPad Prism software.

[4] = tested on: PC3-PIP tumor model; set-up: species or system mice; conditions: mouse, in vivo
In short: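 Male nude mice bearing shoulder xenografts (5×10^6 PC3-PIP cells, or 5×10^6 or 1×10^7 C4-2 cells) received ~30 MBq of ^111In-labeled compound intravenously via tail vein. SPECT/CT regions of interest for heart, kidney and tumor gave % ID/g, mean of two to three animals per time point, range as error.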

[5] = pKD category for PSMA SPR activity assay, hPSMA-Fc, 25° C.

T1 sequence (Q04609 whole entry): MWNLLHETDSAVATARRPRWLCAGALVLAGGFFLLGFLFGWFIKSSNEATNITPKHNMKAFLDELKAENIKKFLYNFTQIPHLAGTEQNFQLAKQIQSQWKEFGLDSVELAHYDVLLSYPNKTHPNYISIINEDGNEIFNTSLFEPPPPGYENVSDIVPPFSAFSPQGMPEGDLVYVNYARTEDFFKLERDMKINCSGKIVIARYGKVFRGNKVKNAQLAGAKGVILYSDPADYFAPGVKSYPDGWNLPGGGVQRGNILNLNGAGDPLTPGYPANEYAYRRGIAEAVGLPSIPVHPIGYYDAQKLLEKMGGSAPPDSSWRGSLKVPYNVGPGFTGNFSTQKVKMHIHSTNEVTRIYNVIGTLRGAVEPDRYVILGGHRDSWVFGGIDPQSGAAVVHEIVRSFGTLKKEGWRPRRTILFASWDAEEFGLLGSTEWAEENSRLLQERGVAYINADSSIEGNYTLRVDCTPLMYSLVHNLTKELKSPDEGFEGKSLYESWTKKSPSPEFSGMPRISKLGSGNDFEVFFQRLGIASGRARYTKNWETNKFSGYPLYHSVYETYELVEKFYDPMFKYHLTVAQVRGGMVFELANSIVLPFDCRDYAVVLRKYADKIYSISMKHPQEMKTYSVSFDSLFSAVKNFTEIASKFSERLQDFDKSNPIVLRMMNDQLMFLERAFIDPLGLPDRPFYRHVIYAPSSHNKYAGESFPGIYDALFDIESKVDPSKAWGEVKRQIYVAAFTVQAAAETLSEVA
T2 sequence (Q04609 44-750 limits assumed): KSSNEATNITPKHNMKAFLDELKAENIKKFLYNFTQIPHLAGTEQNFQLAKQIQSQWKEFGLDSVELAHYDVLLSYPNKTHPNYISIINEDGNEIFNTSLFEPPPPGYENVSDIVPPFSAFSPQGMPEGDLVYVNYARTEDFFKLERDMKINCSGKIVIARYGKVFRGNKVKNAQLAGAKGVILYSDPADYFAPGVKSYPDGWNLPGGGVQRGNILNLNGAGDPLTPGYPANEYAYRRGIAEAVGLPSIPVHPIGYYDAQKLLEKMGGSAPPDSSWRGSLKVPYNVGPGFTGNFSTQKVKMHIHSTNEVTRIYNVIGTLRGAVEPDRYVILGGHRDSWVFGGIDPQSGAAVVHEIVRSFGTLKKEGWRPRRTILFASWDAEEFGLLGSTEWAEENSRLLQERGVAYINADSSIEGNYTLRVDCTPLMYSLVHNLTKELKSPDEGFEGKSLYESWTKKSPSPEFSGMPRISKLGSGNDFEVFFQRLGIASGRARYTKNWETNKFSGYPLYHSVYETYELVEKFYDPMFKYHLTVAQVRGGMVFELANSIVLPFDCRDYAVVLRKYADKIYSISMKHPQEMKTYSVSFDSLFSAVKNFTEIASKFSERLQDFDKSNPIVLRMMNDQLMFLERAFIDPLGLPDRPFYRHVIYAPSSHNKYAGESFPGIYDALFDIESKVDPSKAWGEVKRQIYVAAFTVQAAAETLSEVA
T3 sequence (Q04609 whole entry): as the sequence (Q04609 whole entry) above

Row | IC50 ([1]; pIC50 category of FACS binding) | Kd [2, 5] | IC50 [3] | AUC ratio [T/K] [4] | Tumor AUC [4] | IC50 ([1]; FACS binding, category) | Kd ([2]; PSMA SPR assay, category) | SMILES
1 | < 200 nM | < 12.6 nM | > 1000 nM | – | – | – | – | CC(=O)N[C@H](C(=O)NC(C)(C)C(=O)N[C@@H](Cc1ccccc1)C(=O)N[C@H]1CSSC[C@@H](C(=O)N[C@H](C(=O)N[C@H](C(=O)N[C@@H](CC(=O)O)C(N)=O)[C@@H](C)O)C(C)(C)C)NC(=O)[C@H](CC(N)=O)NC(=O)C(C)(C)NC(=O)[C@H](CCCNC(=N)N)NC(=O)[C@H](CCCCN)NC1=O)[C@@H](C)O [PSM-0374, Ac-Thr-Aib-Phe-[Cys-Lys-Arg-Aib-Asn-Cys]-Tle-Thr-Asp-NH2] (Ac-T[Aib]FCKR[Aib]NC[Tle]TD-NH2; disulfide 4-9)
2 | < 200 nM | < 12.6 nM | – | 1.7 | 270 % ID/g*h | – | – | C[C@@H](O)[C@H](NC(=O)CC1CCN(C(=O)CN2CCN(CC(=O)O)CCN(CC(=O)O)CCN(CC(=O)O)CC2)CC1)C(=O)NC(C)(C)C(=O)N[C@@H](Cc1ccc(Cl)cc1)C(=O)N[C@H]1CSSC[C@@H](C(=O)N[C@H](C(N)=O)C(C)(C)C)NC(=O)[C@H](CC(N)=O)NC(=O)C(C)(C)NC(=O)[C@H](CCCNC(=N)N)NC(=O)[C@H](CCCCN)NC1=O [PSM-0433, DOTA-Cmp-Thr-Aib-Pcf-[Cys-Lys-Arg-Aib-Asn-Cys]-Tle-NH2] ({DOTA}-[X1]T[Aib][Phe(4-Cl)]CKR[Aib]NC[Tle]-NH2; disulfide 5-10)
3 | < 200 nM | < 12.6 nM | – | 1.4 | 220 % ID/g*h | – | – | C[C@@H](O)[C@H](NC(=O)CC1CCN(C(=O)CN2CCN(CC(=O)O)CCN(CC(=O)O)CCN(CC(=O)O)CC2)CC1)C(=O)NC(C)(C)C(=O)N[C@@H](Cc1ccccc1)C(=O)N[C@H]1CSSC[C@@H](C(=O)N[C@H](C(=O)NCCC(N)=O)C(C)(C)C)NC(=O)[C@H](CC(N)=O)NC(=O)C(C)(C)NC(=O)[C@H](CCCNC(=N)N)NC(=O)[C@H](CCCCN)NC1=O [PSM-0449, DOTA-Cmp-Thr-Aib-Pho-[Cys-Lys-Arg-Aib-Asn-Cys]-Tle-Bal-NH2] ({DOTA}-[X1]T[Aib]FCKR[Aib]NC[Tle][βAla]-NH2; disulfide 5-10)
4 | < 200 nM | < 12.6 nM | – | 1.3 | 280 % ID/g*h | – | – | C[C@@H](O)[C@H](NC(=O)CC1CCN(C(=O)CN2CCN(CC(=O)O)CCN(CC(=O)O)CCN(CC(=O)O)CC2)CC1)C(=O)NC(C)(C)C(=O)N[C@@H](Cc1ccc(Cl)cc1)C(=O)N[C@H]1CSSC[C@@H](C(=O)N[C@H](C(=O)NCCC(N)=O)C(C)(C)C)NC(=O)[C@H](CC(N)=O)NC(=O)C(C)(C)NC(=O)[C@H](CCCNC(=N)N)NC(=O)[C@H](CCCCN)NC1=O [PSM-0467, DOTA-Cmp-Thr-Aib-Pcf-[Cys-Lys-Arg-Aib-Asn-Cys]-Tle-Bal-NH2] ({DOTA}-[X1]T[Aib][Phe(4-Cl)]CKR[Aib]NC[Tle][βAla]-NH2; disulfide 5-10)
5 | < 200 nM | < 12.6 nM | – | 2.6 | 130 % ID/g*h | – | – | CNCCCC[C@@H]1NC(=O)[C@@H](NC(=O)[C@H](Cc2ccc(Cl)cc2)NC(=O)C(C)(C)NC(C)=O)CSSC[C@@H](C(=O)N[C@H](C(=O)NCCNC(=O)CN2CCN(CC(=O)O)CCN(CC(=O)O)CCN(CC(=O)O)CC2)C(C)(C)C)NC(=O)[C@H](CC(N)=O)NC(=O)C(C)(C)NC(=O)[C@H](CCCNC(=N)NC)NC1=O [PSM-0481, Ac-Aib-Pcf-[Cys-Lys(Me)-Arg(Me)-Aib-Asn-Cys]-Tle-en-DOTA] (Ac-[Aib][Phe(4-Cl)]C[Lys(Me)][Arg(Me)][Aib]NC[Tle]-{Ethylenediamine-DOTA}; disulfide 3-8)
6 | < 200 nM | < 12.6 nM | – | 2.1 | 180 % ID/g*h | – | – | C[C@@H](O)[C@H](NC(=O)[C@@H](NC(=O)[C@@H]1CSSC[C@H](NC(=O)[C@H](Cc2ccccc2)NC(=O)C(C)(C)NC(=O)[C@@H](NC(=O)CC2CCN(C(=O)CN3CCN(CC(=O)O)CCN(CC(=O)O)CCN(CC(=O)O)CC3)CC2)[C@@H](C)O)C(=O)N[C@@H](CCCCN)C(=O)N[C@@H](CCCNC(=N)N)C(=O)NC(C)(C)C(=O)N[C@@H](CC(N)=O)C(=O)N1)C(C)(C)C)C(N)=O [PSM-0492, DOTA-Cmp-Thr-Aib-Phe-[Cys-Lys-Arg-Aib-Asn-Cys]-Tle-Thr-NH2] ({DOTA}-[X1]T[Aib]FCKR[Aib]NC[Tle]T-NH2; disulfide 5-10)
7 | < 200 nM | < 12.6 nM | – | 1.6 | 120 % ID/g*h | – | – | C[C@@H](O)[C@H](NC(=O)[C@@H](NC(=O)[C@@H]1CSSC[C@H](NC(=O)[C@H](Cc2ccc(Cl)cc2)NC(=O)C(C)(C)NC(=O)[C@@H](NC(=O)CC2CCN(C(=O)CN3CCN(CC(=O)O)CCN(CC(=O)O)CCN(CC(=O)O)CC3)CC2)[C@@H](C)O)C(=O)N[C@@H](CCCCN)C(=O)N[C@@H](CCCC(N)=O)C(=O)NC(C)(C)C(=O)N[C@@H](CC(N)=O)C(=O)N1)C(C)(C)C)C(N)=O [PSM-0531, DOTA-Cmp-Thr-Aib-Pcf-[Cys-Lys-Hgn-Aib-Asn-Cys]-Tle-Thr-NH2] ({DOTA}-[X1]T[Aib][Phe(4-Cl)]CK[Aad](NH2)[Aib]NC[Tle]T-NH2; disulfide 5-10)
8 | < 200 nM | < 12.6 nM | – | 1.1 | 220 % ID/g*h | – | – | C[C@@H](O)[C@H](NC(=O)CN1CCN(CC(=O)O)CCN(CC(=O)O)CCN(CC(=O)O)CC1)C(=O)NC(C)(C)C(=O)N[C@@H](Cc1ccc(Cl)cc1)C(=O)N[C@H]1CSSC[C@@H](C(=O)N[C@H](C(N)=O)C(C)(C)C)NC(=O)[C@H](CC(N)=O)NC(=O)C(C)(C)NC(=O)[C@H](CCCNC(=N)N)NC(=O)[C@H](CCCCN)NC1=O [PSM-0534, DOTA-Thr-Aib-Pcf-[Cys-Lys-Arg-Aib-Asn-Cys]-Tle-NH2] ({DOTA}-T[Aib][Phe(4-Cl)]CKR[Aib]NC[Tle]-NH2; disulfide 4-9)
9 | – | – | – | 1.1 | 160 % ID/g*h | < 200 nM | < 12.6 nM | C[C@@H](O)[C@H](NC(=O)[C@@H](NC(=O)[C@@H]1CSSC[C@H](NC(=O)[C@H](Cc2ccc(Cl)cc2)NC(=O)C(C)(C)NC(=O)[C@@H](NC(=O)CN2CCN(CC(=O)O)CCN(CC(=O)O)CCN(CC(=O)O)CC2)[C@@H](C)O)C(=O)N[C@@H](CCCCN)C(=O)N[C@@H](CCCNC(=N)N)C(=O)NC(C)(C)C(=O)N[C@@H](CC(N)=O)C(=O)N1)C(C)(C)C)C(N)=O [PSM-0573, DOTA-Thr-Aib-Pcf-[Cys-Lys-Arg-Aib-Asn-Cys]-Tle-Thr-NH2] ({DOTA}-T[Aib][Phe(4-Cl)]CKR[Aib]NC[Tle]T-NH2; disulfide 4-9)
10 | – | – | – | 0.6 | 110 % ID/g*h | < 200 nM | < 12.6 nM | CCNC(=O)NC(=N)NCCC[C@@H]1NC(=O)[C@H](CCCCN)NC(=O)[C@@H](NC(=O)[C@H](Cc2ccc(Cl)cc2)NC(=O)C(C)(C)NC(=O)[C@@H](NC(=O)CC2CCN(C(=O)CN3CCN(CC(=O)O)CCN(CC(=O)O)CCN(CC(=O)O)CC3)CC2)[C@@H](C)O)CSSC[C@@H](C(=O)N[C@H](C(=O)N[C@H](C(N)=O)[C@@H](C)O)C(C)(C)C)NC(=O)[C@H](CC(N)=O)NC(=O)C(C)(C)NC1=O [PSM-0579, DOTA-Cmp-Thr-Aib-Pcf-[Cys-Lys-Arg(EtCAyl)-Aib-Asn-Cys]-Tle-Thr-NH2] ({DOTA}-[X1]T[Aib][Phe(4-Cl)]CKR([CO-NHEt])[Aib]NC[Tle]T-NH2; disulfide 5-10)
11 | – | – | – | 1.6 | 110 % ID/g*h | < 200 nM | < 12.6 nM | C[C@@H](O)[C@H](NC(=O)[C@@H](NC(=O)[C@@H]1CSSC[C@H](NC(=O)[C@H](Cc2ccccc2)NC(=O)C(C)(C)NC(=O)[C@@H](NC(=O)CN2CCN(CC(=O)O)CCN(CC(=O)O)CCN(CC(=O)O)CC2)[C@@H](C)O)C(=O)N[C@@H](CCCCN)C(=O)N[C@@H](CCCNC(=N)N)C(=O)NC(C)(C)C(=O)N[C@@H](CC(N)=O)C(=O)N1)C(C)(C)C)C(N)=O [PSM-0580, DOTA-Thr-Aib-Phe-[Cys-Lys-Arg-Aib-Asn-Cys]-Tle-Thr-NH2] ({DOTA}-T[Aib]FCKR[Aib]NC[Tle]T-NH2; disulfide 4-9)
